Here are results for one compound from patent publication US6428654B1, “Fungicidal method” (Hercules Incorporated, priority 2000, dated 2002).

Several values for one entry are separate records, joined by “and”; a condition that tells them apart may be missing. Equal entries are not always repeated.

The test has as its system Aspergillus niger (ATCC 6275). Description: Microtiter XTT growth inhibition assay. Type of test: cell-based. Particulars: 37° C. 24 hours, XTT read at 465 nm, duplicate plates (Plate 1, Plate 2). The method, then: Preparation of the Spore Inoculum—Two sterile petri dishes containing potato dextrose agar are inoculated with Aspergillus niger (ATCC 6275). The plates are incubated for at least 48 hours at 35+1 ° C. At the end of the incubation period, the plates are checked for mycelia and fruiting bodies of the fungus. To prepare the spore-mycelial suspension, the agar surface is scraped with a sterile cotton tip swab. The spores are suspended from the cotton swab in a sterile test tube containing a solution of 0.85% saline and 0.01% Tween 80 (v/v). The spore-mycelial suspension is shaken or vortexed to break up spore and mycelial clumps. Prior to the addition of the spore-mycelial suspension to the test tube containing saline and Tween, a spectrophotometer is set to 650 nm and the absorbance reading is balanced to zero. The optical density (absorbance) of the spore-mycelial suspension is measured in the spectrophotometer. If necessary, the optical density is adjusted to 0.29 absorbance units by addition of diluent or spores. At an optical density of 0.29 absorbance units (at 650 nm), the concentration of spores is 1×10^9 spores/ml. The spore-mycelial suspension is diluted 1/1000 to yield inoculum used for the microtiter assay, having a concentration of 1×10^6 spores/ml.
Microtiter Assay—Six MULTISCREEN filtration plates (96-well MULTISCREEN-GV, clear plates with 0.22 μm membrane; Millipore Corp., Molsheim, France) are used for a three dose response protocol. This protocol and the six MULTISCREEN plates allows for duplication of the experimental results. The three actives employed are BAS49002F (kresoxim methyl at 50 wt %; BASF Corporation, Ludwigshafen, Germany), AF1912 (diiodomethyl-paratolylsulfone; Angus Chemical Company, Buffalo Grove, Ill.), and MBTC (methylenebisthiocyanate; Aldrich Chemical Company, Milwaukee, Wis.). These actives are individually diluted with water to a concentration of 40 ppm actives. Using separate dilution blocks for each active, the actives are serially diluted to reach experimental dose ranges from 10 to 0.156 ppm. Along with the treatments (actives), Sabouraud Dextrose broth (DIFCO Laboratories, Detroit Mich.) and inoculum are added to each well. The microtiter plates are incubated at 37° C. for 24 hours, and after this period a 0.1% solution of XTT (2,3-bis[2-methoxy-4-nitro-5-sulfophenyl]-2H-tetrazolium-5-carboxanilide; Sigma Chemical, Saint Louis, Mo.) and 0.01% of PMS (phenazine methosulfate; Sigma Chemical, Saint Louis, Mo.) are added to each well. The plates are incubated for approximately 3 more hours. Filtration via the MULTISCREEN plates removes the mycelial growth and nonvegetated spores of Aspergillus niger. Each microtiter well is read at 465 nm for the reduction of XTT by metabolically active cells (i.e., a color change from the untreated controls would indicate respiring fungal cells). Growth inhibition results are presented in Table 2, which represents the processed absorbance data that has been converted as a percent inhibition of fungal growth by the three actives tested (BAS49002F, AF1912, and MBTC). The dashed lines in Table 2 indicate negative inhibition values, which indicate that cells were viable, but in futile cell cycles.
In general terms: Tetrazolium dyes change colour on reduction, which living cells bring about.

As to `N#CSCSC#N` [MBTC, methylenebisthiocyanate], the “percent inhibition of fungal growth” value by setting is: (0.156 ppm actives) “— (The dashed lines in Table 2 indicate negative inhibition values, which indicate that cells were viable, but in futile cell cycles)”; (0.31 ppm actives) “— (The dashed lines in Table 2 indicate negative inhibition values, which indicate that cells were viable, but in futile cell cycles)”; (0.625 ppm actives) “— (The dashed lines in Table 2 indicate negative inhibition values, which indicate that cells were viable, but in futile cell cycles)”; (1.25 ppm actives) “— (The dashed lines in Table 2 indicate negative inhibition values, which indicate that cells were viable, but in futile cell cycles)”; (2.5 ppm actives) 86% and 84%; (5.0 ppm actives) 88% and 89%. In addition, the “percent inhibition of fungal growth” value (10.0 ppm actives) is 88% and 89%.
